In patent US20140235863A1, “SUBSTITUTED 4-ARYLTHIAZOLES AND PROCESS OF PREPARATION THEREOF” (priority 2011, published 2014):
Converted amounts (≈) assume the structure as drawn. “And” between values parts separate entries of the source, which are not always exact repeats. Identical values can stand only once.

Assays:
M. tuberculosis H37Rv [1] = assay: BACTEC-460TB radiometric assay, MIC and growth index; type: cell-based, Mycobacterium tuberculosis; settings: for MIC: Mycobacterium tuberculosis, H37RV, BACTEC-460TB radiometric assay, read-out: Mtb H37Rv MIC (BACTEC); for Mtb growth inhibition, growth index (GI) vs days: day 1 to day 11, FIG. 5
M. tuberculosis H37Rv [2] = assay: Agar dilution assay (ADA), MIC; type: cell-based, Mycobacterium tuberculosis; settings: for MIC / Mtb H37Rv MIC: 37° C., 4 weeks; for MIC: read-out: Mtb H37Rv MIC; for anti-TB activity relative to the drug NTZ (times better / more potent): MIC compared with NTZ MIC 52.12 μM
[3] = Cytotoxicity, Resazurin assay; type: cell-based, monkey; settings: monkey, Resazurin assay, 72 h; read-out: In vitro cytotoxicity Vero cells CC50
Method: (§1) Cytotoxicity Studies: The compounds for cytotoxicity were tested in an in vitro model for toxicity with Vero monkey kidney cells using Resazurin assay. […] Cells were exposed to dilutions of experimental and control drugs in triplicate for […] with each compound at a range of concentrations from 100-1.56 μg/ml. […] Each well had 100 μL of the test material in serially descending concentrations. After 72 h of incubation, 10 μL of Resazurin indicator solution (0.1%) was added and incubation was continued for 4-5 h. Any color change from purple to pink or colorless was recorded as positive. Fluorescence was measured of each sample with excitation wavelength at 530 nm and emission wavelength at 590 nm using the BMG Polar Star Galaxy. The CC50 values (50% inhibitory concentrations) were calculated by plotting fluorescence values using Microsoft excel template. The data from this toxicity testing and MIC values were used to calculate a selectivity index (SI), the ratio of CC50: MIC.

Vero monkey kidney cells = assay: Cytotoxicity, Resazurin assay; type: cell-based; settings: for cytotoxicity to Vero cells: FIG. 4; for selectivity index (SI): ratio CC50:MIC as stated in text b128 (fits BACTEC MIC); for SI (selectivity index): ratio CC50:MIC, Table 1 (agar dilution MIC)
Method: as §1

[4] = tested on: replicating and nonreplicating Mtb; settings: cited from earlier work
[5] = Mycobacterium tuberculosis, H37RV, 672 h

Question: With `[H]/N=C(/N)N[C@H]1[C@H](O)[C@@H](O)[C@H](O[C@@H]2O[C@@H](C)[C@](O)(C=O)[C@H]2O[C@@H]2O[C@@H](CO)[C@H](O)[C@@H](O)[C@@H]2NC)[C@@H](N/C(N)=N\[H])[C@@H]1O` [Streptomycin (SM), Streptomycin, reference compound] as the compound, how does the MIC (M. tuberculosis H37Rv [1]) read?
Answer: 6 µM (≈ 3.49 µg/mL)

Question: Which MIC (M. tuberculosis H37Rv [2]; [5]) does the source give for `COc1ccc(-c2csc(Nc3ccccc3C(F)(F)F)n2)cc1OC` [Compound 8a, 4-(3,4-dimethoxyphenyl)-N-(2-(trifluoromethyl)phenyl)thiazol-2-amine] here?
Answer: > 12.5 µg/mL

Question: And the melting point?
Answer: 188 °C

Question: With `NNC(=O)c1ccncc1` [Isoniazid (INH), Isoniazid, reference compound] as the compound, how does the MIC (M. tuberculosis H37Rv [2]; [5]) read?
Answer: < 1 µg/mL

Question: Which MIC (M. tuberculosis H37Rv [2]; [5]) does the source give for `COc1ccc(-c2csc(NN=C3CCCc4c(OC)cccc43)n2)cc1OC` [Compound 1a, 4-(3,4-dimethoxyphenyl)-2-(2-(5-methoxy-3,4-dihydronaphthalen-1(2H)-ylidene)hydrazinyl)-thiazole] here?
Answer: 15.3 µM and 6.25 µg/mL

Question: What about the “Mtb growth inhibition, growth index (GI) vs days” value (M. tuberculosis H37Rv [1]; 6.25 μM) of the same compound?
Answer: very effective for inhibiting the Mtb growth till day 11

Question: What about the MIC (M. tuberculosis H37Rv [1]) of the same compound?
Answer: 6.25 µM (≈ 2.56 µg/mL)

Question: And the CC50 at 72 h [3]?
Answer: > 244 µM

Question: What about the “cytotoxicity to Vero cells” value (Vero monkey kidney cells; Resazurin assay) of the same compound?
Answer: failed to show any cytotoxicity

Question: What about the “selectivity index (SI)” value (Vero monkey kidney cells) of the same compound?
Answer: ≥ 39

Question: And the “SI (selectivity index)” value (Vero monkey kidney cells)?
Answer: ≧16

Question: What about the melting point of the same compound?
Answer: 200 °C

Question: What does the source list for `COc1ccc(OC)c(Nc2nc(-c3cccc([N+](=O)[O-])c3)cs2)c1` [Compound 7b, N-(2,5-dimethoxyphenyl)-4-(3-nitrophenyl)thiazol-2-amine]?
Answer: MIC (M. tuberculosis H37Rv [2]; [5]): > 12.5 µg/mL; melting point: 154 °C

Question: Which “Mtb H37Rv MIC” value (M. tuberculosis H37Rv [2]) does the source give for `Fc1ccc(-c2csc(NN=Cc3cn(Cc4ccc(Cl)cc4Cl)c4ccccc34)n2)cc1` [Compound 2c, 2-(2-((1-(2,4-dichlorobenzyl)-1H-indol-3-yl)methylene)hydrazinyl)-4-(4-fluorophenyl)thiazole] here?
Answer: >12.50 µg/mL

Question: What about the MIC (M. tuberculosis H37Rv [2]; [5]) of the same compound?
Answer: > 12.5 µg/mL

Question: And the melting point?
Answer: 198 °C

Question: Which results are given for `COc1cccc2c1CCCC2=NNc1nc(-c2ccc(F)cc2)cs1` [Compound 1c, 4-(4-fluorophenyl)-2-(2-(5-methoxy-3,4-dihydronaphthalen-1(2H)-ylidene)hydrazinyl)thiazole]?
Answer: MIC (M. tuberculosis H37Rv [2]; listed as is): 17.03 µM; MIC (M. tuberculosis H37Rv [2]; [5]): 17 µM and 6.25 µg/mL; Mtb growth inhibition, growth index (GI) vs days (M. tuberculosis H37Rv [1]; 6.25 μM): comparatively lesser effective on day 10 onwards; MIC (M. tuberculosis H37Rv [1]): 6.25 µM (≈ 2.3 µg/mL); CC50 at 72 h [3]: > 244 µM; CC50 (Vero monkey kidney cells; Resazurin assay, 72 h, read-out: In vitro cytotoxicity Vero cells CC50): > 300 µM; cytotoxicity to Vero cells (Vero monkey kidney cells; Resazurin assay): failed to show any cytotoxicity; selectivity index (SI) (Vero monkey kidney cells): ≥ 48; SI (selectivity index) (Vero monkey kidney cells): ≧17; melting point: 198 °C

Question: Which “Mtb H37Rv MIC” value (M. tuberculosis H37Rv [2]) does the source give for `COc1ccc(-c2csc(NN=Cc3cn(Cc4ccc(Cl)cc4Cl)c4ccccc34)n2)cc1OC` [Compound 2a, 2-(2-((1-(2,4-dichlorobenzyl)-1H-indol-3-yl)methylene)hydrazinyl)-4-(3,4-dimethoxyphenyl)thiazole] here?
Answer: >12.50 µg/mL

Question: And the MIC (M. tuberculosis H37Rv [2]; [5])?
Answer: > 12.5 µg/mL

Question: What about the melting point of the same compound?
Answer: 205 °C

Question: With `Fc1ccc(Nc2nc(-c3ccc(F)cc3)cs2)cc1` [Compound 6, N,4-bis(4-fluorophenyl)thiazol-2-amine] as the compound, how does the “anti-TB activity relative to the drug NTZ (times better / more potent)” value (M. tuberculosis H37Rv [2]) read?
Answer: about 9 times

Question: And the MIC (M. tuberculosis H37Rv [2]; [5])?
Answer: 6.25 µM and 1.8 µg/mL

Question: And the MIC (M. tuberculosis H37Rv [1])?
Answer: 12.5 µM (≈ 3.6 µg/mL)

Question: And the “Mtb growth inhibition, growth index (GI) vs days” value (M. tuberculosis H37Rv [1]; ≧12.5 μM)?
Answer: effectively inhibit Mtb growth till day 11

Question: And the melting point?
Answer: 127 °C

Question: What does the source list for `COc1ccc(OC)c(Nc2nc(-c3ccc(F)cc3)cs2)c1` [Compound 7a, N-(2,5-dimethoxyphenyl)-4-(4-fluorophenyl)thiazol-2-amine]?
Answer: MIC (M. tuberculosis H37Rv [2]; [5]): > 12.5 µg/mL; melting point: 160 °C

Question: Which “anti-TB activity relative to the drug NTZ (times better / more potent)” value (M. tuberculosis H37Rv [2]) does the source give for `COc1cccc2c1CCCC2=NNc1nc(-c2ccc(Cl)cc2Cl)cs1` [Compound 1b, 4-(2,4-dichlorophenyl)-2-(2-(5-methoxy-3,4-dihydronaphthalen-1(2H)-ylidene)hydrazinyl)thiazole] here?
Answer: about 2 times

Question: What about the MIC (M. tuberculosis H37Rv [2]; [5]) of the same compound?
Answer: 29.9 µM and 12.5 µg/mL

Question: And the melting point?
Answer: 200 °C

Question: Which results are given for `Fc1ccc(-c2csc(Nc3ccccc3C(F)(F)F)n2)cc1` [Compound 8b, 4-(4-fluorophenyl)-N-(2-(trifluoromethyl)phenyl)thiazol-2-amine]?
Answer: MIC (M. tuberculosis H37Rv [2]; [5]): > 12.5 µg/mL; melting point: 184 °C

Question: With `CC(=O)Oc1ccccc1C(=O)Nc1ncc([N+](=O)[O-])s1` [Nitazoxanide (NTZ), Nitazoxanide] as the compound, how does the MIC ([4]; nonreplicating Mtb) read?
Answer: 60.38 μM and 16 μg/mL

Question: With `O=C(Nc1ncc([N+](=O)[O-])s1)c1ccccc1O` [Tizaxonide (TIZ), Tizaxonide] as the compound, how does the “MIC of reference NTZ/TIZ, Mtb H37Rv” value ([4]; replicating Mtb, literature value listed with the agar dilution data) read?
Answer: 60.38 μM and 16.00 μg/mL

Question: With `COc1ccc(-c2csc(Nc3ccccc3C(F)(F)F)n2)cc1` [Compound 8d, 4-(4-methoxyphenyl)-N-(2-(trifluoromethyl)phenyl)thiazol-2-amine] as the compound, how does the MIC (M. tuberculosis H37Rv [2]; [5]) read?
Answer: > 12.5 µg/mL

Question: For `COc1cccc2c1CCCC2=NNc1nc(-c2cccc([N+](=O)[O-])c2)cs1` [Compound 1d, 2-(2-(5-methoxy-3,4-dihydronaphthalen-1(2H)-ylidene)hydrazinyl)-4-(3-nitrophenyl)thiazole], which “anti-TB activity relative to the drug NTZ (times better / more potent)” value (M. tuberculosis H37Rv [2]) is on record?
Answer: about 2 times

Question: What about the MIC (M. tuberculosis H37Rv [2]; [5]) of the same compound?
Answer: 31.7 µM and 12.5 µg/mL

Question: What about the melting point of the same compound?
Answer: 185 °C

Question: What does the source list for `O=[N+]([O-])c1cccc(-c2csc(Nc3ccccc3C(F)(F)F)n2)c1` [Compound 8c, 4-(3-nitrophenyl)-N-(2-(trifluoromethyl)phenyl)thiazol-2-amine]?
Answer: MIC (M. tuberculosis H37Rv [2]; [5]): > 12.5 µg/mL; melting point: 182 °C

Question: Which MIC (M. tuberculosis H37Rv [2]; [5]) does the source give for `COc1ccc(-c2csc(Nc3cc(OC)ccc3OC)n2)cc1` [Compound 7c, N-(2,5-dimethoxyphenyl)-4-(4-methoxyphenyl)thiazol-2-amine] here?
Answer: > 12.5 µg/mL

Question: What about the melting point of the same compound?
Answer: 104 °C

Question: With `Clc1ccc(Cn2cc(C=NNc3nc(-c4ccc(Cl)cc4Cl)cs3)c3ccccc32)c(Cl)c1` [Compound 2b, 2-(2-((1-(2,4-dichlorobenzyl)-1H-indol-3-yl)methylene)hydrazinyl)-4-(2,4-dichlorophenyl)thiazole] as the compound, how does the MIC (M. tuberculosis H37Rv [2]; [5]) read?
Answer: 22.9 µM and 12.5 µg/mL

Question: And the melting point?
Answer: 185 °C
